The text below walks through data of patent US9738612B2, “Methylacryloyl benzimidazolone derivative and anti-tumour use thereof” (SHANGHAI NATURE STANDARD R&D AND BIOTECH CO., LTD, priority 2014, dated 2017).

Molecules are shown by their SMILES.

The subject of one experiment is SGK(h). The experiment is described as follows: Tumor-associated kinase inhibition test. The format is biochemical, human. The note with it: 10 μM. An excerpt:
(§1) Eurofins Pharma Discovery Services UK Limited completed and reported this experiment.

The target of a further experiment is T1, Aurora-A(h) (Homo sapiens, UniProt O14965).
T1 construct: purchased Eurofins Pharma Discovery Services UK Limited (contract assay service)
The experiment is described as follows: Tumor-associated kinase inhibition test. It counts as biochemical. The note with it: read-out: Inhibitory rate (%).
Source text: as §1

For a further experiment, the target named is T2, CDK5/p35(h) (Homo sapiens, UniProt Q00535).
T2 construct: purchased Eurofins Pharma Discovery Services UK Limited (contract assay service)
The experiment is described as follows: Tumor-associated kinase inhibition test. The note with it: read-out: Inhibitory rate (%). The format is biochemical.
Source text: as §1

Another experiment addresses T3, Lck(h)activated (Homo sapiens, UniProt P06239).
T3 construct: purchased Eurofins Pharma Discovery Services UK Limited
Put plainly: Tumor-associated kinase inhibition test. The format is biochemical. The note with it: read-out: Inhibitory rate (%).
Source text: as §1

A further experiment addresses T4, PDGFRβ(h) (Homo sapiens, UniProt P09619).
T4 construct: purchased Eurofins Pharma Discovery Services UK Limited
The experiment is described as follows: Tumor-associated kinase inhibition test. It counts as biochemical. The note with it: read-out: Inhibitory rate (%).
Source text: as §1

The next experiment addresses T5, PI3KC2α(h) (Homo sapiens, UniProt O00443).
T5 construct: purchased Eurofins Pharma Discovery Services UK Limited (contract assay)
The experiment is described as follows: Tumor-associated kinase inhibition test. The format is biochemical. The note with it: read-out: Inhibitory rate (%).
Source text: as §1

Another experiment concerns the target T6, PKCα(h) (Homo sapiens, UniProt P17252).
T6 construct: purchased Eurofins Pharma Discovery Services UK Limited
The experiment is described as follows: Tumor-associated kinase inhibition test. The format is biochemical. The note with it: read-out: Inhibitory rate (%).
Source text: as §1

In another experiment the target is T7, FGFR1(h) (Homo sapiens, UniProt P11362).
T7 construct: purchased Eurofins Pharma Discovery Services UK Limited (contract testing)
Put plainly: Tumor-associated kinase inhibition test. The format is biochemical. The note with it: read-out: Inhibitory rate (%).
Source text: as §1

The test system of a further experiment is p-Akt (S473). The experiment is described as follows: Western blot, p-Akt (S473) in IGF stimulated A549 cells. The note with it: compound 1 h, IGF 10 min, FIG. 1, in words. It counts as cell-based. The protocol:
A549 cells were seeded at a density of 2×10^5 cells/well into 12-well plates, and adhered overnight. Then the medium was discarded and the plates were washed three times with normal saline. After that, fresh serum-free medium was added to starve cells for 24 hours, compounds to be tested were added to work for 1 h, then IGF-I was added to stimulated for 10 min, followed byadding a lysis buffer on ice to lyse for half an hour. The cell lysates were collected and centrifuged at 20000×g at 4° C. for 10min, then the supernatant was collected. Protein was quantified by MicroBCA protein quantification Assay kit, and the protein concentration was normalized. The supernatant was mixed with the 4×SDS sample buffer [200 mM Tris.Cl (pH 6.8), 400 mM DTT, 8% SDS, 0.4% bromophenol blue, 40% glycerol] and boiled for 15 min. After cooling at room temperature, aliquots were loaded on polyacrylamide gel, and electrophoresed in Tris-glycine electrophoretic buffer (25 mM Tris, 250 mM glycine, 0.1% SDS) at 80-120 V for about 2 h. Proteins were transferred from the gel to a nitrocellulose membrane by a semi-dry method. Transferring conditions: transfer buffer (39 mM glycine, 48 mM Tris base, 0.037% SDS, 20% methanol); transfer current 25 mA; transfer time 2 h. After transfer, Ponceau S staining was used to determine the transfer efficiency and the positions of protein bands on the nitrocellulose membranes. After labeling the membrane was blocked with a blocking solution containing 5% nonfat-dried milk [5% nonfat-dried milk, 20 mM Tris-HCl (pH 7.2-7.4), 150 mM NaCl, 0.1% (v/v) Tween 20] on a shaker at room temperature for 2 h. To the system were added specific primary antibodies and incubated overnight at 4° C. Then the membrane was washed with PBST solution [20 mM Tris-HCl (pH 7.2-7.4), 150 mM NaCl, 0.1% (v/v) Tween 20] at room temperature three times, 15 min/time. To the system were added Horseradish peroxidase-labeled secondary antibodies and incubated at room temperature on a shaker with gentle shaking for 2 h. After washing with PBST solution three times, the system was exposed, developed and fixed after SuperSignal West Dura Chemiluminescent Substrate (Pierce Inc, Rochford, IL) was used for color. The results were shown in FIG. 1, in which there were 12 lanes the band shade and size of which indicated the corresponding protein concentration levels. […] MK2206 was an Akt phosphorylation inhibitor developed by Merck, and was currently in phase II clinical trial, showing good therapeutic effects in a variety of tumors.

A further experiment has as its system Hela cells. Put plainly: Subcutaneous transplantation of Hela cells into nude mice. The format is in vivo. The protocol:
The method used herein for animal experiment was that using the subcutaneous transplantation of Hela cells into nude mice.
Tumor tissues at vigorous growth phase were cut into the size of about 1.5mm^3, and inoculated subcutaneously to the right armpit of nude mice under sterile condition. The diameters of subcutaneous xenograft tumors in nude mice were measured with a vernier caliper. The animals were randomly divided when the tumors grew to the sizes of 100-200 mm^3. FD162 was divided into three groups: 20mg/kg, 10mg/kg and 5mg/kg, with 9 mice per group; rapamycin was 10mg/kg; the model group was given saline. All treatments were intraperitoneally administered once a day for 12 days. Throughout the experiment, tumor diameters and body weights were measured simultaneously twice a week. Tumor volume (TV) was calculated as follows: TV=½×a×b2, where a, b respectively represents the length and width of tumors. […]

T5 sequence (O00443 whole entry): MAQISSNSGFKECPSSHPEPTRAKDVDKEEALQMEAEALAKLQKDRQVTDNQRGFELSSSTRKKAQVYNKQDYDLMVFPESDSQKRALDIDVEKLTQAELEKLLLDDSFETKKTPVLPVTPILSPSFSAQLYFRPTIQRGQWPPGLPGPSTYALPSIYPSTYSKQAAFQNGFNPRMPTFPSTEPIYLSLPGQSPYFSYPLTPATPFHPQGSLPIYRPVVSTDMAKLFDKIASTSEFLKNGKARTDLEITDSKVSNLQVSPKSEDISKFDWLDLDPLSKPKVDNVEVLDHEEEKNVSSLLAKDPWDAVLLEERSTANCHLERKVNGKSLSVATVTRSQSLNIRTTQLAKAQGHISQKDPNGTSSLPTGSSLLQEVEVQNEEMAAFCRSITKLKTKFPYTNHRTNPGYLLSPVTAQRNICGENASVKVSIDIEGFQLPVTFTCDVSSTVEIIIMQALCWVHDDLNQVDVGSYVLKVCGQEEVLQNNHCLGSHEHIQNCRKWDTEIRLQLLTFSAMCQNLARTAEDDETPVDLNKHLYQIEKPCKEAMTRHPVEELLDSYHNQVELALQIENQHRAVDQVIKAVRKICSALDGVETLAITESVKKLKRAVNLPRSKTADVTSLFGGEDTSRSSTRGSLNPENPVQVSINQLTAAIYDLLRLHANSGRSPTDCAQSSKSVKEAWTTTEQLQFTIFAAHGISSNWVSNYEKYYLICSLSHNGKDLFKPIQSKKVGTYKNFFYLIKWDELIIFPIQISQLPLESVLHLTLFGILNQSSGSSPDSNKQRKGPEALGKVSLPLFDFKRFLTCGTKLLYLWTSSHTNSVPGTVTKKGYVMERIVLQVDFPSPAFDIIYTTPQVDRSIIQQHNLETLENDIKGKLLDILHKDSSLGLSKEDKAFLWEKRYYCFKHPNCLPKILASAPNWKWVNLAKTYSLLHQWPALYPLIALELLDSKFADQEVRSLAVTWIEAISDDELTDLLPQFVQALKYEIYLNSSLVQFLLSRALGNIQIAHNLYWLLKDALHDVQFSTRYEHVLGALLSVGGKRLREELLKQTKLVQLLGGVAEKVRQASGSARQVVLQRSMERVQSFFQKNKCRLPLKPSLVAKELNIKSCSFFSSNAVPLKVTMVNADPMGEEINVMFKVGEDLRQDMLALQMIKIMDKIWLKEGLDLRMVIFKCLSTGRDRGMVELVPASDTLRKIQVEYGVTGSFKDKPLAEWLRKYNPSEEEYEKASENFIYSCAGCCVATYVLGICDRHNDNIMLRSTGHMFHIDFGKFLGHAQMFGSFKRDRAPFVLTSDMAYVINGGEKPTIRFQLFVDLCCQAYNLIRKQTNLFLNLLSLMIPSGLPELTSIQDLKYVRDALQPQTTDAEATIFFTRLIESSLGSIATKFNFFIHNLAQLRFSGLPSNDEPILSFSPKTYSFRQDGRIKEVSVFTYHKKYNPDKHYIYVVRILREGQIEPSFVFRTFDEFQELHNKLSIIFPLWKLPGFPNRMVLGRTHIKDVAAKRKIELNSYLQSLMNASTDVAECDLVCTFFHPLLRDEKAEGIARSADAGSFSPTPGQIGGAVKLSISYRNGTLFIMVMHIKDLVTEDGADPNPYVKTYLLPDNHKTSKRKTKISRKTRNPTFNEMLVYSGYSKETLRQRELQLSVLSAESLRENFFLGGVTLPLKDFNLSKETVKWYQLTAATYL
T2 sequence (Q00535 whole entry): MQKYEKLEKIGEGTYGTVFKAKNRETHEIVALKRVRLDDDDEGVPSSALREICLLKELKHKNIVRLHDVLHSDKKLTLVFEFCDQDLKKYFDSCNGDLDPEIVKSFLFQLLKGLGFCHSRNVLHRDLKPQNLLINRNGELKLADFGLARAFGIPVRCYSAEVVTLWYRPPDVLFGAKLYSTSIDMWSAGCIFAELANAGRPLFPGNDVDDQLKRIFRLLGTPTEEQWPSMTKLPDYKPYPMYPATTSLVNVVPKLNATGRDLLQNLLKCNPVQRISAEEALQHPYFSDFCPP
T2 sequence (Q15078 whole entry partner): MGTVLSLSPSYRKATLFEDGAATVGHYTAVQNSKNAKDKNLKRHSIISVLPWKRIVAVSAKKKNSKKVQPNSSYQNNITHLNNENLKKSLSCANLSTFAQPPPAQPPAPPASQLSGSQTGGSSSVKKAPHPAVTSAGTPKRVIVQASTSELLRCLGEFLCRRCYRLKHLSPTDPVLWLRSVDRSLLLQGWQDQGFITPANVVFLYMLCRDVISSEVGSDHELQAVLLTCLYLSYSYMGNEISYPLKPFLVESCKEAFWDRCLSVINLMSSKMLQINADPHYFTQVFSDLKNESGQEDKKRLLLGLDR
T1 sequence (O14965 whole entry): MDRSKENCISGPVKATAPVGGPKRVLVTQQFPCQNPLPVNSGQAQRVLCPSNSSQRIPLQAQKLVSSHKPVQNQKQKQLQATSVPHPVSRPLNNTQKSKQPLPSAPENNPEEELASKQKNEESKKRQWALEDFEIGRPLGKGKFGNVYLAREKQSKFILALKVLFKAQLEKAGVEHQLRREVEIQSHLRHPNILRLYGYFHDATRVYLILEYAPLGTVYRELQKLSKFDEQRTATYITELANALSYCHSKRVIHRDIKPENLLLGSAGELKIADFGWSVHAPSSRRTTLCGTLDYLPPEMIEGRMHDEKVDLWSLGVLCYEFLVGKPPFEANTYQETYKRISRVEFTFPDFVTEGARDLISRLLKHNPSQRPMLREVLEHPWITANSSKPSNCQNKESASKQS
T7 sequence (P11362 22-822): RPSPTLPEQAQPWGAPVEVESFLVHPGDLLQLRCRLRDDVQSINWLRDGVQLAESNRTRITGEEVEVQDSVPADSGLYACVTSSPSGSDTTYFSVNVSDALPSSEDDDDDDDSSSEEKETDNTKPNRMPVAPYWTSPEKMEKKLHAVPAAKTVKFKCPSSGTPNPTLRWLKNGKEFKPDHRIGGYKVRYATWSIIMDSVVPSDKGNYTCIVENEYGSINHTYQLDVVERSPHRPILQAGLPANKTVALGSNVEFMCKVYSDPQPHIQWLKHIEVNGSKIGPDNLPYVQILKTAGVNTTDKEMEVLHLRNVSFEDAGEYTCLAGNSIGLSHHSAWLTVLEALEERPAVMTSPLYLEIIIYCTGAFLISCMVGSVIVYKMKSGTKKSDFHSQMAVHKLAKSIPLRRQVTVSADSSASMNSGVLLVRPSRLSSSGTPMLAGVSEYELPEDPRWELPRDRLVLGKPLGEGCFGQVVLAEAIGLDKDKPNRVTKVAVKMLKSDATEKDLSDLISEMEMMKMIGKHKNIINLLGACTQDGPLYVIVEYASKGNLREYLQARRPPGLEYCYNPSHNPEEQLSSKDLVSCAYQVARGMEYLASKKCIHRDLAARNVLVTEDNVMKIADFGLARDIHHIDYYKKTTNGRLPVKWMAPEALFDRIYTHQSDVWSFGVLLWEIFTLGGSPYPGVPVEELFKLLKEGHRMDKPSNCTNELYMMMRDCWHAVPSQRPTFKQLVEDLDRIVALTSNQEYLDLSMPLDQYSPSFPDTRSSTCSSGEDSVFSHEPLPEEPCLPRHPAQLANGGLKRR
T3 sequence (P06239 whole entry): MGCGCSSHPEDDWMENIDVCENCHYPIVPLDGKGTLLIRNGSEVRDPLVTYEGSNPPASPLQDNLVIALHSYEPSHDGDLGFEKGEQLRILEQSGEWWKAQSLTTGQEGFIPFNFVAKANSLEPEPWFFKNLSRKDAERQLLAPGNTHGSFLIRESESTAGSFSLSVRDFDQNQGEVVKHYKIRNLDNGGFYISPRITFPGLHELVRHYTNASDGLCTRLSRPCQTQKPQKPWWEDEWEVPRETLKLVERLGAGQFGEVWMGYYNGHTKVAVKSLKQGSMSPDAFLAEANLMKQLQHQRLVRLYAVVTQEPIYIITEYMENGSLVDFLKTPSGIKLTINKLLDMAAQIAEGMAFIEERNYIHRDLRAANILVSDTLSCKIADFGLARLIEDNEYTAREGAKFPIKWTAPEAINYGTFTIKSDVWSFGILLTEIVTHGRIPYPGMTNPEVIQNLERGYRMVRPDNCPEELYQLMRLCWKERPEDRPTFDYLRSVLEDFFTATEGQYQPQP

Regarding `C=C(C)n1c(=O)n(C(C)=O)c2ncc(Br)cc21` [FD162], in the experiment with SGK(h), the “Inhibitory rate (%)” value is listed as −4%. Also, the inhibition at 10 µM at Aurora-A(h) was 1%; at CDK5/p35(h), 0%; on Lck(h)activated, -1%; at PDGFRβ(h), -8%; on PI3KC2α(h), 7%; at PKCα(h), 24%. The inhibition at 10 µM on FGFR1(h) was 4%. For the same molecule, the “Effect on Akt phosphorylation level (p-Akt S473 band)” value is reported as “significantly reduce the Akt phosphorylation level” in the experiment with p-Akt (S473) and “comparable effects to MK2206” in the experiment with p-Akt (S473) (listed as FD3). In addition, the Tumor inhibitory rate entry in the experiment on Hela cells (10 mg/kg intraperitoneally once a day for 12 days, Hela xenograft in nude mice) is listed as “greater than 50%”. For the same molecule, the “Tumor inhibiting effect compared with positive control group (rapamycin 10mg/kg)” value in the experiment with Hela cells (middle dose (10 mg/kg), i.p., 12 days, FIG. 5, in words) is reported as “better than the positive control group”.
